According to publication PMC4911353, “Pharmacologic Inhibition of Host Phosphodiesterase-4 Improves Isoniazid-Mediated Clearance of Mycobacterium tuberculosis” (Frontiers in Immunology, 2016):

Test system: Mtb-infected mouse lungs
Assay: Genome-wide lung transcriptome (microarray, IPA network/GO analysis) of Mtb-infected mice
Format: in vivo
Set-up: SDEGs upregulated in TNF-α interaction network / SDEGs downregulated in TNF-α interaction network: unit not given here
[1] = TNF-a regulon network, Mtb-infected mouse lungs, CC-11050 treated
[2] = lungs of treated infected animals

CCOc1cc([C@@H](CS(C)(=O)=O)N2Cc3cccc(NC(=O)C4CC4)c3C2=O)ccc1OC [CC-11050, N-[2-[(1S)-1-(3-ethoxy-4-methoxyphenyl)-2-(methylsulfonyl)ethyl]-2,3-dihydro-3-oxo-1H-isoindol-4-yl]-(9Cl) cyclopropanecarboxamide]
PCK2 expression (TNF-a regulon network): 0
PCP4 expression (TNF-a regulon network): 0
PCSK6 expression (TNF-a regulon network): 0
PDCD1 expression (TNF-a regulon network): 0
PDE2A expression (TNF-a regulon network): 0
PDE8B expression (TNF-a regulon network): 0
PDGFA expression (TNF-a regulon network): 0
PDPN expression (TNF-a regulon network): -1.216
PDZD2 expression (TNF-a regulon network): 0
PECAM1 expression (TNF-a regulon network): 0
PENK expression (TNF-a regulon network): 0
PIGR expression (TNF-a regulon network): 0
PKMYT1 expression (TNF-a regulon network): 0
PLA2G5 expression (TNF-a regulon network): 0
PLA2G16 expression (TNF-a regulon network): 0
PLAUR expression (TNF-a regulon network): 0
PLIN1 expression (TNF-a regulon network): 0
PLIN4 expression (TNF-a regulon network): 0
PLK3 expression (TNF-a regulon network): 0
PLSCR1 expression (TNF-a regulon network): 0
PML expression (TNF-a regulon network): 0
PPAP2A expression (TNF-a regulon network): 1.247
PPARA expression (TNF-a regulon network): 0
PPARD expression (TNF-a regulon network): 0
PPARG expression (TNF-a regulon network): 0
PPARGC1A expression (TNF-a regulon network): 0
PPP1R3C expression (TNF-a regulon network): 0
PRKCD expression (TNF-a regulon network): 0
PRSS23 expression (TNF-a regulon network): 0
PSMA2 expression (TNF-a regulon network): 0
PSMB8 expression (TNF-a regulon network): 0
PSMB9 expression (TNF-a regulon network): 0
PSMB10 expression (TNF-a regulon network): 0
PSME1 expression (TNF-a regulon network): 0
PSME2 expression (TNF-a regulon network): 0
PXMP2 expression (TNF-a regulon network): 0
PYCARD expression (TNF-a regulon network): 0
RAB32 expression (TNF-a regulon network): 0
RARRES2 expression (TNF-a regulon network): 0
RASD1 expression (TNF-a regulon network): 0
RCAN1 expression (TNF-a regulon network): 0
RCN3 expression (TNF-a regulon network): 1.2203
REL expression (TNF-a regulon network): 0
RETN expression (TNF-a regulon network): 0
RFTN1 expression (TNF-a regulon network): 0
RFX5 expression (TNF-a regulon network): 0
RGS1 expression (TNF-a regulon network): 0
RGS2 expression (TNF-a regulon network): 0
RGS4 expression (TNF-a regulon network): 0
RGS5 expression (TNF-a regulon network): 0
RGS7 expression (TNF-a regulon network): 0
RGS14 expression (TNF-a regulon network): 0
RGS16 expression (TNF-a regulon network): 0
RIPK1 expression (TNF-a regulon network): 0
RIPK2 expression (TNF-a regulon network): 0
RNASE2 expression (TNF-a regulon network): 0
RNASE4 expression (TNF-a regulon network): 0
RND3 expression (TNF-a regulon network): -1.216
RNF149 expression (TNF-a regulon network): 0
ROBO1 expression (TNF-a regulon network): 1.1568
RRM2 expression (TNF-a regulon network): 0
RUNX2 expression (TNF-a regulon network): 0
S100A8 expression (TNF-a regulon network): 0
SAA2 expression (TNF-a regulon network): 0
SAMD4A expression (TNF-a regulon network): 0
SCNN1A expression (TNF-a regulon network): 0
SCNN1B expression (TNF-a regulon network): 0
SCNN1G expression (TNF-a regulon network): 1.211
SCUBE1 expression (TNF-a regulon network): 0
SCUBE2 expression (TNF-a regulon network): 1.331
SDC2 expression (TNF-a regulon network): 0
SELPLG expression (TNF-a regulon network): 0
SEMA3C expression (TNF-a regulon network): 1.231
SEPP1 expression (TNF-a regulon network): 0
SERPINB9 expression (TNF-a regulon network): 0
SERPINE2 expression (TNF-a regulon network): 0
SERPINF1 expression (TNF-a regulon network): 0
SHH expression (TNF-a regulon network): 0
SLC14A1 expression (TNF-a regulon network): 0
SLC1A2 expression [1]: 0
SLC1A3 expression [1]: 0
SLC1A4 expression [1]: 0
SLC2A6 expression [1]: 0
SLC5A8 expression [1]: 0
SLC7A8 expression [1]: 0
SLC20A1 expression [1]: 0
SLFN12L expression [1]: 0
SMAD3 expression [1]: 0
SMPD1 expression [1]: 0
SMPD2 expression [1]: 0
SMPDL3A expression [1]: 1.176
SMURF1 expression [1]: 0
SMURF2 expression [1]: 1.4579
SNCG expression [1]: 0
SND1 expression [1]: 0
SOCS3 expression [1]: 0
SOD1 expression [1]: 1.19
SP1 expression [1]: 0
SP3 expression [1]: 0
SPHK1 expression [1]: 0
SQSTM1 expression [1]: 0
ST3GAL5 expression [1]: 0
ST3GAL6 expression [1]: 0
ST6GAL1 expression [1]: 0
STARD3 expression [1]: 0
STAT4 expression [1]: 0
STEAP4 expression [1]: 0
STMN1 expression [1]: -1.16
SULT2A1 expression [1]: 0
SYTL1 expression [1]: 0
Slco1a4 expression [1]: 0
TAP1 expression [1]: 0
TAPBP expression [1]: 0
TBX21 expression [1]: 0
TBXAS1 expression [1]: 0
TDRD7 expression [1]: 0
TEK expression [1]: 0
TF expression [1]: 0
THY1 expression [1]: 0
TIMP2 expression [1]: 0
TIMP4 expression [1]: 0
TJP1 expression [1]: 0
TLR7 expression [1]: 0
TLR8 expression [1]: 0
TM4SF1 expression [1]: 0
TNF expression [1]: 0
TNFAIP2 expression [1]: 0
TNFAIP3 expression [1]: 0
TNFAIP6 expression [1]: 0
TNFAIP8 expression [1]: 0
TNFRSF11A expression [1]: -1.191
TNFRSF18 expression [1]: 0
TNFSF10 expression [1]: 0
TNFSF13B expression [1]: 0
TNIP1 expression [1]: 0
TNN expression [1]: 0
TPD52L2 expression [1]: 1.132
TPT1 expression [1]: 0
TRADD expression [1]: 0
TRAF1 expression [1]: 0
TRAF2 expression [1]: 0
TRAF3 expression [1]: 0
TRAFD1 expression [1]: 0
TREM2 expression [1]: 0
TWIST2 expression [1]: 0
TXNIP expression [1]: 1.1361
TYK2 expression [1]: 0
Tgtp1/Tgtp2 expression [1]: 0
UBD expression [1]: 0
UBE2H expression [1]: 0
UCP1 expression [1]: 0
VASP expression [1]: 0
VCAM1 expression [1]: 0
VIPR2 expression [1]: 0
WHSC1 expression [1]: 0
WISP1 expression [1]: 0
WLS expression [1]: 0
WNT5A expression [1]: 0
WNT7A expression [1]: 0
WTAP expression [1]: 0
ZC3H12A expression [1]: 0
ZNF365 expression [1]: 0
Genes downregulated in lung inflammation network [2]: four
Genes upregulated in lung inflammation network [2]: nine
SDEGs downregulated in TNF-α interaction network [2]: 8
SDEGs upregulated in TNF-α interaction network [2]: 33
Il-17 interaction network genes whose expression was dampened (lungs of treated infected mice): 87%
Genes significantly differentially expressed in Il-17 interaction network (lungs of treated infected mice, HmgB1, Il17F, Entpd1, HspB8): four
